Consider 1 compound from patent publication US20240016784A1, “Y BOX BINDING PROTEIN 1 INHIBITORS” (Oregon Health & Science University, priority 2020, published 2024).

The structures appear in SMILES notation.

What is called IC50 is the concentration needed to halve the response being measured.

Series [1] is described as follows: Liver toxicity parameters (ALT, AST, ALKP) in ID8 study. Type of series: in vivo, C57BL/6 mice. The note with it: 20 mg/kg daily IP, 42 days. The method, then:
These promising results led us to test SU093 and SU056 in vivo. C57BL/6 mice were implanted with 2×10^6 firefly luciferase (luc+)-expressing ID-8 syngeneic ovarian cancer cells subcutaneously. Once the tumors reached 100 mm^3 in size, we began daily intraperitoneal treatment with SU093 and SU056 at 20 mg/kg (vehicle control 30% PEG-300 in saline). Tumor growth was monitored via bioluminescence imaging (IVIS).
In vivo xenograft model and drug efficacy study: All animal experiments were reviewed and approved by the Animal Care and Use Committee of Stanford University, CA, USA. Luciferase tagged ID8 (2×10^6) or OVCAR8 (5×10^6) cells were implanted into the right flank of 6-7-week-old female C57BL/6 mice and NOD/SCID mice, respectively. Respective treatment began after tumors grew to 100-200 mm^3 diameters. The ID8 syngeneic mice model was treated with a vehicle (30% PEG-300 in saline), 20 mg/kg SU093, and 20 mg/kg SU056 intraperitoneally (IP) daily for 42 days. At the end of treatment, blood was collected from each mouse and analyzed for liver toxicity parameters, including Alanine Aminotransferase (ALT), Aspartate Aminotransferase (AST), and Alkaline Phosphatase (ALKP). […]

The subject of series [2] is OVCAR4, OVCAR5 and ID8 cells. Nature of the series: Cell viability (MTT) assay, ovarian cancer cell lines. It is filed as cell-based. The note with it: 48 h of treatment. The source says: We tested the relationship between AzPs dose and the viability of human ovarian cancer cell lines and the ID8 murine ovarian cancer cell line.
FIG. 1A) Lead optimization of SU093 to obtain SU056. FIG. 1B) IC50 values of SU093 and SU056 on various ovarian cancer cells. Clonogenic survival of OC cells treated with SU093 or SU056. […] FIG. 1C) Representative colony formation from respective wells. FIG. 1D) Number of colonies formed after SU093 and SU056 treatment. […] FIG. 1F) Cell cycle distribution of propidium iodide (PI)-stained OVCAR8, SKOV3, and ID8 cells. […] FIG. 1G) Effects of SU093 and SU056 on apoptotic cell death analyzed by Annexin-FITC staining. […] FIG. 1H) Cell migration assay.

Series [3] has as its target T1, YB-1 in OVCAR4, OVCAR8, and SKOV3 cells (Homo sapiens, UniProt P67809).
T1 construct: endogenous in cells; host or cells: OVCAR4, OVCAR8, SKOV3
Nature of the series: YB-1 inhibition time kinetics (YB-1 ELISA). It is filed as cell-based. The note with it: 5 μM treatment for 24 h; all three OC cells. The method, then: Out of six targets identified, we selected proteins whose thermal shift is above 5° in the presence of SU056 for further study of protein expression after treatment. […] To study the in vivo effects of SU056 treatment, we analyzed ID8 tumor xenograft samples via immunohistochemistry (IHC). […] To identify the broader effects of SU056 on YB-1 and its downstream protein/activity in different ovarian cancer cell lines, we selected six different cell lines and treated them with SU056 (2.5 μM) for 12 h. Cells were analyzed for YB-1 and CD44 expression and Multidrug resistance 1 (MDR1, ABC pump mediated efflux). […] Finally, we tested the time kinetics and dose-dependent effects of SU056 on YB-1 expression. OVCAR4, OVCAR8, and SKOV3 cells were treated with SU056 (1, 2.5, and 5 μM) for 3, 6, 12, and 24 h and YB-1 expression was measured using YB-1 ELISA. […]
Total YB-1 sandwich ELISA: Total YB-1 protein level was analyzed using PathScan® Total YB1 Sandwich ELISA Kit (Cell Signaling, #12543) by following the manufacturer's protocol.
FIGS. 4A-4E: SU056 inhibits YB-1. […] FIG. 4C) Respective OC cells were treated with 2.5 μM SU056 for 12 h and YB-1 & CD44 expression and multidrug resistance activity was measured as described in the ‘method’ section. The % inhibition was calculated and compared to the control for the respective cell line. […]
A general note: An ELISA detects its analyte on a solid surface through an enzyme-linked reagent.

In the next series the test system is OVCAR8 YBX1-shRNA1 cells. Nature of the series: Cell viability assay, transduced OVCAR8 cells. The following applies: Homo sapiens, OVCAR-8, read-out: IC50 (cell viability).

T1 sequence (P67809 whole entry): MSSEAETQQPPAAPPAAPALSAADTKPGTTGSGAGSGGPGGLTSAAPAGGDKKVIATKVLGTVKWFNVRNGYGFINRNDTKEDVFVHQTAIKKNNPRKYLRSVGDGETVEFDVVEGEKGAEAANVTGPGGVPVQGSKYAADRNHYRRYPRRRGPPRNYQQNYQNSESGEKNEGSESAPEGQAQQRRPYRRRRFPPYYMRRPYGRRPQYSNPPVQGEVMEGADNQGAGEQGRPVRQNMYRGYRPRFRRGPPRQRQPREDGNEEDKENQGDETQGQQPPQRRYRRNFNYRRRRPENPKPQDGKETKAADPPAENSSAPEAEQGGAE
From the text for OVCAR8 YBX1-shRNA1 cells: To check the dependency of SU056 activity on YB-1 expression, we also tested OVCAR8 cells transfected with YB-1 knockdown using transduction of lentiviral shRNA vectors. […] Furthermore, we also performed a cell viability assay using knockdown cells to calculate IC50 values.
Scrambled control (SC), YBX1 knockdown (1 & 2) and mCherry-YBX1 OVCAR8 cell lines were created using lentiviral based transduction and selected using puromycin resistance followed by cell shorting.
Cell viability assay: Cell viability was assessed using the standard MTT assay protocol. In brief, 5,000 cells were plated in each well of 96 well plates (Corning-Costar, #3598) and allowed to attach for 24 h. Cells were treated with a respective concentration of compounds for respective time points. A stock solution of each compound was prepared in DMSO. DMSO concentration was kept constant and maintained below 0.1%. After each incubation, 50 μL of 0.5 mg/ml MTT solution prepared in 1×PBS was added to each well followed by 1 h incubation at 37° C. and 5% CO2. MTT solution and media were then removed, and MTT formazan crystals were dissolved in 100 μL of DMSO per well. Absorbance at 570 nm for each well was recorded using a multimode plate reader to quantitate MTT crystallization. Each absorbance value was normalized to controls and converted into percent cell viability. […]

With `O=C1OCC2=C1C(c1cccc(F)c1)c1cc3c(cc1N2CCO)OCO3` (stereo not shown) [SU056, 9-(3-fluorophenyl)-5-(2-hydroxyethyl)-6,9-dihydro-[1,3]dioxolo[4,5-g]furo[3,4-b]quinolin-8(5H)-one], the “impact on blood chemistry indicators (AST, ALT, alkaline phosphatase)” value in series [1] was “no significant impact”. Also, the “decrease of IC50 compared to SU093” value in series [2] is “up to 2 fold”. The YB-1 inhibition in series [3] turned out to be 100%. Besides, in the series with OVCAR8 YBX1-shRNA1 cells, the IC50 turned out to be 15.8 µM.
